We go through five compounds from patent US10920265B2, “Compounds and methods for detection of enzymes that remove methyl succinyl groups from epsilon-amino lysine moieties” (Enzo Life Sciences, Inc., priority 2011, dated 2021).

*: point of attachment. AMC = Cc1cc(=O)oc2cc(N*)ccc12

Assay in all cases: Sirtuin activity with fluorogenic lysyl substrates
Common to all, as to format: biochemical
What all share (details): 50 μM substrate, 500 μM NAD^+

The target of one assay is T1, SIRT1 (Homo sapiens, UniProt Q96EB6).
T1 construct: purchased ENZO Life Sciences BML-SE239
T1 sequence (Q96EB6 1-747): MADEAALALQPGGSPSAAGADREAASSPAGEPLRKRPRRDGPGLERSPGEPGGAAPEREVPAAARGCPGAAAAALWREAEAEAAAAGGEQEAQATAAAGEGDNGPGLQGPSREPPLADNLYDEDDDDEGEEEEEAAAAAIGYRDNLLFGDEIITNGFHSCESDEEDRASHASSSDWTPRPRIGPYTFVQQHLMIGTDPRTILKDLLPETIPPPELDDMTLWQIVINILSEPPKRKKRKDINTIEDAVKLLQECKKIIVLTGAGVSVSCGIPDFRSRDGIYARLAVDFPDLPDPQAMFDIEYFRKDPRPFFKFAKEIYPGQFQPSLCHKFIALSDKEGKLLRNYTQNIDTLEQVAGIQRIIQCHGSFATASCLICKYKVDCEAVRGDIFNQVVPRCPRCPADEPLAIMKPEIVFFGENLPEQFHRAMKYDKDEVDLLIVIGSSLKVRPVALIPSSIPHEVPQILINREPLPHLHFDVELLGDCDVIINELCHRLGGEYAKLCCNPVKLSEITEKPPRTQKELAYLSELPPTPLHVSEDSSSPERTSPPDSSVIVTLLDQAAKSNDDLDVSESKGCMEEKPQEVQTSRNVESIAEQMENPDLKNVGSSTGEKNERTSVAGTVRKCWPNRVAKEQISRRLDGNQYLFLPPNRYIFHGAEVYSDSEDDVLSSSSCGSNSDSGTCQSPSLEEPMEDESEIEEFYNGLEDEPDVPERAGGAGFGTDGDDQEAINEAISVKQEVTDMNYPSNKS
How it is done:
(§1) The Ac-Lys(Succ.)-AMC substrate was tested for activity with recombinant preparations of human HDACs 1-11, SIRTs 1-4, 6 and 7, a complex of HDAC3 with a fragment of the activating protein NCOR1 and with HeLa nuclear extract, a rich source of active HDACs in their native multiprotein complexes.
(§2) Enzyme and extract catalog products obtained from ENZO Life Sciences included: HDAC1 (Cat. # BML-SE456), HDAC2 (Cat. # BML-SE500), HDAC3 (Cat. # BML-SE507), HDAC3/NCOR1 Complex (Cat. # BML-SE515), HDAC6 (Cat. # BML-SE508), HDAC8 (Cat. # BML-SE145), HDAC10 (Cat. # BML-SE559), HDAC11 (Cat. # BML-SE560), SIRT1 (Cat. # BML-SE239), SIRT2 (Cat. # BML-SE251), SIRT3 (Cat. # BML-SE270), SIRT5 (Cat. # BML-SE555), HeLa Nuclear Extract (Cat. # BML-KI140), Trypsin (“Fluor de Lys Developer”, 80 mg/ml bovine trypsin in 1 mM HCl, Cat. # BML-KI105 or “Fluor de Lys Developer II”, 80 mg/ml bovine trypsin in 1 mM HCl, Cat. # BML-KI176). […] Enzymes obtained from BPS Bioscience, San Diego, Calif. included: human recombinants SIRT4 (Cat. #50015), SIRT6 (Cat. #50017), SIRT7 (Cat. #50018). HeLa whole cell extract was obtained from HeLa S3 cells (American Type Culture Collection) grown in a medium of MEM/10% fetal bovine serum (FBS) as follows: 1) 9×10^6 cells were suspended by trypsinization, followed by a phosphate buffered saline (PBS) rinse and addition of MEM/10% FBS (1.5 mL) to eliminate trypsin before transfer to a 15 mL conical tube; 2) cells were sedimented by a low speed centrifugation, gently resuspended in PBS and sedimented again and supernatant removed; 3) lysis was induced by resuspension in 0.8 mL 50 mM Tris/HCl, pH 8.0 with the non-denaturing detergent NP-40 (0.5%), placement on ice and brief vortexing every 5 min. for 30 min.; 4) 100 μl of a concentrated salt solution in the same buffer was added in order to bring the final buffer composition to 50 mM Tris/C1, pH 8.0, 137 mM NaCl, 2.7 mM KCl, 1 mM MgCl2, 0.5% NP-40; 5) particulate matter was cleared by centrifugation and the cleared lysate supernatant transferred to a 1.5 mL Eppendorf tube and stored on ice until use in activity assays.
(§3) Assays were performed at 37° C., according to the manufacturer's instructions for the “SIRT1 Fluorometric Drug Discovery Kit” from Enzo Life Sciences (ELS) (Cat. # BML-AK555), with exceptions described as follows. Where indicated in figures and text, SIRT1 enzyme was replaced with another enzyme or extract and the “Fluor de Lys-SIRT1 Substrate” (Ac-Arg-His-Lys-Lys(Ac)-AMC; ELS Cat. # BML-KI-177) was replaced with another acetylated, succinylated or trifluoroacetylated substrate.

Another assay deals with T2, SIRT3 (Homo sapiens, UniProt Q9NTG7).
T2 construct: purchased ENZO Life Sciences BML-SE270
T2 sequence (Q9NTG7 1-399): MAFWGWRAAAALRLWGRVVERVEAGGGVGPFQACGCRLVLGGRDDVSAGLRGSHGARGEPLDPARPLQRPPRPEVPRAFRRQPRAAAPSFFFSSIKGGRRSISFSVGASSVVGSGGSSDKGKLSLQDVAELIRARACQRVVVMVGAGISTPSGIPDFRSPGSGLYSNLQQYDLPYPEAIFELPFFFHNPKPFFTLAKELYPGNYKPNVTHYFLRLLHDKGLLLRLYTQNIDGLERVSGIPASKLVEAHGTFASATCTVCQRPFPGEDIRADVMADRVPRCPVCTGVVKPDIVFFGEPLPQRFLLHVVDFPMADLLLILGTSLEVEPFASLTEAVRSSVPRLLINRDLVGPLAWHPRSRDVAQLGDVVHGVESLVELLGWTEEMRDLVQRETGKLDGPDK
As to the method: as §1, §2, §3

The next assay deals with T3, SIRT6 (Homo sapiens, UniProt Q8N6T7).
T3 construct: purchased BPS Bioscience 50017
T3 sequence (Q8N6T7 whole entry): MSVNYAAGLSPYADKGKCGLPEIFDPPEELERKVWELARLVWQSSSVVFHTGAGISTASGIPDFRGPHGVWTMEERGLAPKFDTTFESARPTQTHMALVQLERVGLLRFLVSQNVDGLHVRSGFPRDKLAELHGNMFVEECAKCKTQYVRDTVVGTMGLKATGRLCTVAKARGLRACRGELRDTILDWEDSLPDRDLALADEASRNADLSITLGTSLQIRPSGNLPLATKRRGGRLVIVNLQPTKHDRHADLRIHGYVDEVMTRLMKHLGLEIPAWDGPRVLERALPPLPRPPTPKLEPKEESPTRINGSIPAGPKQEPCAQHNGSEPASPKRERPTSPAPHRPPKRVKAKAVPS
As to the method:
as §1, §2, §3

`CC(=O)N[C@@H](CCCCNC(=O)CCC(=O)O)C(=O)Nc1ccc2c(C)cc(=O)oc2c1` [Compound 1, N—(N^α-acetyl-L-Lysine(N^ε-succinyl))-AMC]: the “Activity (pmol/min/μg)” value on SIRT1, on SIRT3 and on SIRT6 was “Undetectable” each time.
In the case of `COC(=O)CCC(=O)NCCCC[C@H](NC(C)=O)C(=O)Nc1ccc2c(C)cc(=O)oc2c1` [Compound 5, N—(N^α-acetyl-L-Lysine(N^ε-methyl succinyl))-AMC], the entries for the “Activity” value at SIRT1, on SIRT3 and at SIRT6 were 0.002 pmol/min/µg, 0.002 pmol/min/µg and 0.006 pmol/min/µg, respectively.
Turning to “Ac-Arg-His-Lys-Lys(ε-acetyl)-AMC (Ac-RHKK(Ac)-{AMC}; SMILES CC(=O)NCCCC[C@H](NC(=O)[C@H](CCCCN)NC(=O)[C@H](Cc1c[nH]cn1)NC(=O)[C@H](CCCNC(=N)N)NC(C)=O)C(=O)Nc1ccc2c(C)cc(=O)oc2c1) [Ac-RHKK(Ac)-AMC, p53 peptide fluorogenic deacetylase substrate, Cat. # BML-KI177, reference compound]”, the figures for the “Activity (pmol/min/μg)” value with SIRT1 and in the assay with SIRT6 were “Ac-RHKK(Ac)-AMC/64 pmol/min/μg” and “Ac-RHKK(Ac)-AMC/0.052 pmol/min/μg”, respectively.
Turning to `CC(=O)NCCCCC(NC(C)=O)C(=O)Nc1ccc2c(C)cc(=O)oc2c1` (stereo not shown) [Ac-Lys(Ac.)-AMC, Ac-Lys(ε-acetyl)-AMC, reference compound], the figures for the “Activity” value at SIRT1 and at SIRT3 were 0.391 pmol/min/µg and 0.125 pmol/min/µg, respectively.
As for `CCCCCCCCCCCCCC(=O)NCCCC[C@H](NC(C)=O)C(=O)Nc1ccc2c(C)cc(=O)oc2c1` [Compound 4, N—(N^α-acetyl-L-Lysine(N^ε-myristoyl))-AMC], the “Activity” value at SIRT1 was found to be 0.043 pmol/min/µg; on SIRT3 it was 0.012 pmol/min/µg; at SIRT6 it was 0.074 pmol/min/µg.
